Data as given in ChEMBL document CHEMBL1201862, “PubChem BioAssay data set” (2004).
The source made the active and inactive calls. Rule as the data show it, for most assays here: actives have a measured EC50 and inactives only a lower limit.

Legend:
Estrogen receptor beta = Estrogen receptor beta (Homo sapiens, UniProt Q92731);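 also: recombinant ER-beta bound to coactivator SRC1 peptide in presence of estradiol agonist; inhibitors block coactivator peptide binding and lower the FRET signal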
[1] = alpha-synuclein stem-loop translation blockers – luminescence, H4 neuroglioblastoma cells, dose confirmation, confirmation (AID 2454); assay type: functional, cell-based;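 also: H4 neuroglioblastoma cells carrying an alpha-synuclein 5'UTR luciferase reporter; potency for inhibition of the luciferase signal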
cells = assay type: functional, cell-based
[2] = luciferase reporter signal reduction – luminescence, H4-C neuroglioblastoma cells, dose response (AID 2458); assay type: functional, cell-based;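 also: H4 neuroglioblastoma cells stably carrying a luciferase reporter gene fusion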
[3] = Luminescence-based counterscreen assay for KLF5 inhibitors: dose response cell-based high throughput screening assay to identify cytotoxic compounds using the IEC-6 intestinal epithelial cell line. [Related pubchem assays: 1700 (Primary screen.), 1834 (Confirmation screen.), 1858 (Summary AID.), 1905 (Counterscreen.)]; assay type: functional
[4] = luciferase reporter signal suppression in cells – H4 neuroglioma cells, luminescence, dose response (AID 1990); assay type: functional, cell-based
[5] = alpha-synuclein stem-loop luciferase translation blockers – H4 neuroglioma cells, luminescence, confirmation (AID 1988); assay type: functional, cell-based
HT-1080 = assay: HT1080 cell viability loss – fluorescence readout (AID 620); assay type: functional, cell-based; settings: Homo sapiens
[6] = target: Luciferin 4-monooxygenase (Photinus pyralis, UniProt P08659); assay: Counter Screen for Luciferase-based Assay Positives. [Related pubchem assays: 620, 618, 411 ]
Chain of Luciferin 4-monooxygenase (P08659 whole entry): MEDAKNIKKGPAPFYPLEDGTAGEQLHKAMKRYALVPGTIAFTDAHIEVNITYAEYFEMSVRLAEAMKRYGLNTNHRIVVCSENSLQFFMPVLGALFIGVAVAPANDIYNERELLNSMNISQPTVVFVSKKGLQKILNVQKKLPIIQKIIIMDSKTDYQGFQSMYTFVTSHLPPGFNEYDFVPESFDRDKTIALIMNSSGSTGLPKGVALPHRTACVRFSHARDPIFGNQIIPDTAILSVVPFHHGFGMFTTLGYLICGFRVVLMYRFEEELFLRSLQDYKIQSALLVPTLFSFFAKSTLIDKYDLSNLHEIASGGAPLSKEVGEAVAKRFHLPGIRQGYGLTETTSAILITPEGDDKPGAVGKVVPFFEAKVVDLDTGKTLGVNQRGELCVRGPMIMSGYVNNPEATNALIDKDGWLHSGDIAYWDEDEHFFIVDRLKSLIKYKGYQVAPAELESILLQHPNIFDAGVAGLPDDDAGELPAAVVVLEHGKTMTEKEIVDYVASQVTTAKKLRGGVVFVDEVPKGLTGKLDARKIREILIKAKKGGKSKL

[7] = Luminescence Cell-Based Dose Retest to Confirm Inhibitors of Cancer Stem Cells. [Related pubchem assays (depositor defined):AID2717, AID2721]; assay type: functional; settings: Homo sapiens
[8] = Luminescence Cell-Based Dose Response to Identify Activators of Luciferase Translation or Activity in H4-C Neuroglioblastoma Cells. [Related pubchem assays: 1829 (Project Summary), 1814 (Primary HTS)]; assay type: functional
[9] = Luminescence Cell-Based Dose Confirmation to Identify Activators of 5'UTR Stem-Loop Driven Alpha-Synuclein mRNA Translation in H4 Neuroglioblastoma Cells. [Related pubchem assays: 1829 (Project Summary), 1814 (Primary HTS)]; assay type: functional
[10] = Luminescence Cell-Based Dose Response to Identify Activators of 5'UTR Stem-Loop Driven Prion Protein mRNA Translation in H4-C Neuroglioblastoma Cells. [Related pubchem assays: 1829 (Project Summary), 1814 (Primary HTS)]; assay type: functional
H4 = assay: Luminescence Cell-Based Dose Response HTS to Identify Activators of 5'UTR Stem-Loop Driven Prion Protein mRNA Translation in H4 Neuroglioblastoma Cells. [Related pubchem assays: 1829 (Project Summary), 1814 (Primary HTS)]; assay type: functional; settings: Homo sapiens
[11] = Luminescence Cell-Based Dose Response HTS to Identify Activators of Luciferase Translation or Activity in H4 […] Cells. [Related pubchem assays: 1829 (Project Summary), 1814 (Primary HTS)]; assay type: functional
[12] = target: Peroxisome proliferator-activated receptor gamma/Nuclear receptor coactivator 2 (Homo sapiens, UniProt P37231); assay type: functional;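 also: agonist potency for raising coactivator recruitment to the receptor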
Chain of Peroxisome proliferator-activated receptor gamma/Nuclear receptor coactivator 2 (P37231 whole entry): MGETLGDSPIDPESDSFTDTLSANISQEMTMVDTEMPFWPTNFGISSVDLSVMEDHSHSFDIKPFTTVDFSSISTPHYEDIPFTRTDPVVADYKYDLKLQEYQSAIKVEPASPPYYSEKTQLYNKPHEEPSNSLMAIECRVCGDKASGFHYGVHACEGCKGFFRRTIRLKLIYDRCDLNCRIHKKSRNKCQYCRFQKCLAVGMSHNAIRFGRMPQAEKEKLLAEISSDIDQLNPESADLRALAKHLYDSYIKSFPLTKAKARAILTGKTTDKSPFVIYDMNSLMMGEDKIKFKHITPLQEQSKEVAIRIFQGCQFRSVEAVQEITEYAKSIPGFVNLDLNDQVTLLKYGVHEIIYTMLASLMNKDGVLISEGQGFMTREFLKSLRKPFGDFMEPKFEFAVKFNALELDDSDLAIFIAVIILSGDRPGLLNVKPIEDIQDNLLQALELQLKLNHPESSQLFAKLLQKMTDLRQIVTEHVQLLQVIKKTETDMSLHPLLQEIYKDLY
Chain of Peroxisome proliferator-activated receptor gamma/Nuclear receptor coactivator 2 (Q15596 whole entry, further chain): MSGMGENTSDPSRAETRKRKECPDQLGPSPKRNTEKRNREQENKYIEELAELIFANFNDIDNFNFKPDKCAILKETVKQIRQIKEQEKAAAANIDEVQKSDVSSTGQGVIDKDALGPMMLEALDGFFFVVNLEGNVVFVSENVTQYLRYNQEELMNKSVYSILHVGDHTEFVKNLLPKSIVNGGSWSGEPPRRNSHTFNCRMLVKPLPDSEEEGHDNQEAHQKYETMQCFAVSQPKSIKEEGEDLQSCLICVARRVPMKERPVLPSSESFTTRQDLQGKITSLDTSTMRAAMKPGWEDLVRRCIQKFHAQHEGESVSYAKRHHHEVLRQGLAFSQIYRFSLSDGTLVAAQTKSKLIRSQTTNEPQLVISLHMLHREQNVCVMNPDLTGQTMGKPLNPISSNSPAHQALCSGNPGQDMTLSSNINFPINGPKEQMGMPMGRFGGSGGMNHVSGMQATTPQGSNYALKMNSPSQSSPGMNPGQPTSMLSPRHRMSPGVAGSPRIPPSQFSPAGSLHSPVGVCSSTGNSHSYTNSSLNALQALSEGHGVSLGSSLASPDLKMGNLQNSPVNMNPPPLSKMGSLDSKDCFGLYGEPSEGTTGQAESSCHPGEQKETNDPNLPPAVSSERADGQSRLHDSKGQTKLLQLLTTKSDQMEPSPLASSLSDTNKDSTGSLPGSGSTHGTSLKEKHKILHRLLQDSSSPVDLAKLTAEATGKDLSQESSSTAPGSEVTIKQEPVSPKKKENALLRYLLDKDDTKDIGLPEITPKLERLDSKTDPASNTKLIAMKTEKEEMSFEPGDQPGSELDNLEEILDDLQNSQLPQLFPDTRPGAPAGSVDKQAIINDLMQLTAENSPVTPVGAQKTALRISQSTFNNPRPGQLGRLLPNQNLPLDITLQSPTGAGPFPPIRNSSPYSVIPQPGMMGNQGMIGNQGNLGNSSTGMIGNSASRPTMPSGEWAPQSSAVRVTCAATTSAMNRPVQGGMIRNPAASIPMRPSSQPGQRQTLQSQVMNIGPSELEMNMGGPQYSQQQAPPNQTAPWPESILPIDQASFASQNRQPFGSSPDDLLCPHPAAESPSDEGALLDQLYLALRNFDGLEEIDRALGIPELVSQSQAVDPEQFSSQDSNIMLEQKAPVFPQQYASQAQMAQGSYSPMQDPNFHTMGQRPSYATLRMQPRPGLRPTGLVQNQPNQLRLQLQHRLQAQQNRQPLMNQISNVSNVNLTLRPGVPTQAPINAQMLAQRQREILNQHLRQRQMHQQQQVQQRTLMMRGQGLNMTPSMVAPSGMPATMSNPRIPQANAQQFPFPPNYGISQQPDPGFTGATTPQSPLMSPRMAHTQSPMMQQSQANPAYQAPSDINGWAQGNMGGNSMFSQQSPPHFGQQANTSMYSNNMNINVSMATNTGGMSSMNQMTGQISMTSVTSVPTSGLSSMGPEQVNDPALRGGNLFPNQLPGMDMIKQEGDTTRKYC

[13] = target: Peroxisome proliferator-activated receptor gamma/Nuclear receptor coactivator 3 (Homo sapiens, UniProt P37231); assay type: functional;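 also: agonist potency for raising coactivator recruitment to the receptor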
[14] = target: Peroxisome proliferator-activated receptor gamma/Nuclear receptor coactivator 1 (Homo sapiens, UniProt P37231); assay type: functional;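 also: agonist potency as compounds enhance coactivator SRC-1 recruitment to PPARgamma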
Chain of Peroxisome proliferator-activated receptor gamma/Nuclear receptor coactivator 1 (P37231 whole entry): as the sequence (P37231 whole entry) above
Chain of Peroxisome proliferator-activated receptor gamma/Nuclear receptor coactivator 1 (Q15788 whole entry, further chain): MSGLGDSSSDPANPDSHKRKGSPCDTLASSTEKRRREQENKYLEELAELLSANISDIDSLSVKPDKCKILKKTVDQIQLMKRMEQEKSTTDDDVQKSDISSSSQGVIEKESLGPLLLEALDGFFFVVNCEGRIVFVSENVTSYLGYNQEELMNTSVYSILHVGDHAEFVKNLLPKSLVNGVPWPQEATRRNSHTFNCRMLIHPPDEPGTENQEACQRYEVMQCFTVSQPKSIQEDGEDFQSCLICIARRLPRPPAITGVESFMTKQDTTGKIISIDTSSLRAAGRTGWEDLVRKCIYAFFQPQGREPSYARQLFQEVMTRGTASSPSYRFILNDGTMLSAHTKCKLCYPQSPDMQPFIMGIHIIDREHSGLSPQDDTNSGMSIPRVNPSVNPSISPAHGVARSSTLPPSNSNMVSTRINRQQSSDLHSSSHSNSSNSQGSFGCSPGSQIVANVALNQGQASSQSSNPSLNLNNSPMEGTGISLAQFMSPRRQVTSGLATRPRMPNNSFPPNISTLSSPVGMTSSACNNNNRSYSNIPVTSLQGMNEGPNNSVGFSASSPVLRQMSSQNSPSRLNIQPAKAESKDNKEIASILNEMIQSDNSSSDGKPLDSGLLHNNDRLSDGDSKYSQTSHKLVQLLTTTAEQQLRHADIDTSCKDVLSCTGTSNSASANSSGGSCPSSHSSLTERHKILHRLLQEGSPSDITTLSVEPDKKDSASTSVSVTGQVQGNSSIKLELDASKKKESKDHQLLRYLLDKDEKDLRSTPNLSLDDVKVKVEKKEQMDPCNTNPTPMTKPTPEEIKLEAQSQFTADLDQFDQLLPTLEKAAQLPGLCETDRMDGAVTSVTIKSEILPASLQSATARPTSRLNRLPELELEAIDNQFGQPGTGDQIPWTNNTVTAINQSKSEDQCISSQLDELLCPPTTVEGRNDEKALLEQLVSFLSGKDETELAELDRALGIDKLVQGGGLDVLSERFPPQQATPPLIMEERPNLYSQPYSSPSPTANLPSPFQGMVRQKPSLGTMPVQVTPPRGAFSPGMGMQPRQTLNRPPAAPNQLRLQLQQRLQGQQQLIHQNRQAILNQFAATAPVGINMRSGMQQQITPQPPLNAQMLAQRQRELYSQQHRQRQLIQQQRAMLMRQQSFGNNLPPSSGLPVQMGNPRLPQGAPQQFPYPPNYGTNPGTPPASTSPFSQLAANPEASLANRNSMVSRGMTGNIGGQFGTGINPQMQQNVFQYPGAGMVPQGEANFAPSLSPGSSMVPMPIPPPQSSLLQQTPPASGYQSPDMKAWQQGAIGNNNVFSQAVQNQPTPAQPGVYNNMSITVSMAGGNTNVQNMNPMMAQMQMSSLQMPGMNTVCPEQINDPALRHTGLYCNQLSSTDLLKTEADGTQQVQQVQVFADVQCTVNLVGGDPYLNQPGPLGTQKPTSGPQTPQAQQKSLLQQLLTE

[15] = NIH3T3 cell viability loss – ATP luminescence, mouse fibroblasts, counter-screen, dose response (AID 2010); assay type: functional, cell-based;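 also: cells exposed to compound for about 90 hours before reading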
HEK293 [16] = assay: inhibition of NOD1-driven NF-kB reporter – cell-based, luminescence, uHTS, primary screen (AID 1578); assay type: functional; settings: Homo sapiens
BJ [17] = assay: cells; assay type: functional, cell-based; settings: Homo sapiens
HEK293 [18] = assay: cells; assay type: functional, cell-based; settings: Homo sapiens
HEK293 [19] = assay: cells; assay type: functional, cell-based; settings: Homo sapiens; remark: listed apart in the source
HEK293 [20] = assay: NOD2 signaling inhibitors in MDP-stimulated cells, cell-based, uHTS, luminescence (AID 2001); assay type: functional; settings: Homo sapiens
BJ [21] = assay: BJ-TERT fibroblast viability loss – cell-based, RAS-independent, luminescence, dose response (AID 1933); assay type: functional; settings: Homo sapiens
[22] = DRD fibroblast viability loss – cell-based, non-viral oncogenic, luminescence, dose response (AID 1934); assay type: functional; settings: Homo sapiens
[23] = Trypanosoma cruzi growth suppression in host cells – NIH3T3 host cells, beta-gal luminescence, confirmation (AID 2044); assay type: functional, cell-based;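 also: intracellular parasites grown in NIH/3T3 mouse fibroblasts as host cells; luminescent beta-galactosidase reporter signal from transgenic T. cruzi replicating inside host cells; inhibitors lower the luminescence signal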
HEK293 [24] = assay: cells; assay type: functional, cell-based; settings: Homo sapiens; remark: listed apart in the source
BJ [25] = assay: BJ-TERT-LT-ST fibroblast viability loss – cell-based, RAS-independent, luminescence, dose response (AID 1935); assay type: functional; settings: Homo sapiens;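 also: BJ fibroblasts immortalized with TERT plus LT and ST oncogenes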
[26] = target: Nucleotide-binding oligomerization domain-containing protein 2 (Homo sapiens, UniProt Q9HC29); assay: inhibition of NOD2-driven NF-kB reporter – cell-based, luminescence, uHTS, HEK293 (AID 1566); assay type: functional
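For AC50 in this document: cells exposed to compound for roughly 70 hours or longer before luminescence read.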

Chain of Estrogen receptor beta (Q92731 whole entry): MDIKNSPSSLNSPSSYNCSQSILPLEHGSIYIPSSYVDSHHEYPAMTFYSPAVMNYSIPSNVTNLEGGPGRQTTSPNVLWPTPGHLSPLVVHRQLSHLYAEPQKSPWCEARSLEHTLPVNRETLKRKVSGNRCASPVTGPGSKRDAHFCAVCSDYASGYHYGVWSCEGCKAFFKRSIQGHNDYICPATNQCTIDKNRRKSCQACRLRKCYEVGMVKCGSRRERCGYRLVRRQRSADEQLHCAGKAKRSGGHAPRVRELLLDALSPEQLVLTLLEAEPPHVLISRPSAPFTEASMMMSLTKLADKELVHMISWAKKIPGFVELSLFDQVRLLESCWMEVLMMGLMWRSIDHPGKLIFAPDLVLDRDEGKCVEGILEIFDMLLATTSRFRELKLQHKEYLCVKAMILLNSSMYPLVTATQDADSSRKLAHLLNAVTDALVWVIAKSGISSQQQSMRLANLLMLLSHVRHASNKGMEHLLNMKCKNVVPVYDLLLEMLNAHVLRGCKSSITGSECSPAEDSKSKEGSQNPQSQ

With O=C(O)CC(Cn1nnnc1S)c1ccccc1 (configuration not stated) the IC50 (Estrogen receptor beta) was > 50 µM (not active).

In the case of Cc1ccc2nc(NC(=O)CCCc3nc4ccccc4s3)sc2c1, the EC50 [1] is reported as 1.54 µM (active), the EC50 (cells) is reported as > 12 µM (not active) and the EC50 [2] is reported as 1.6 µM (active). The IC50 [3] was > 39.8 µM (not active), the EC50 [4] was 0.499 µM (active) and the EC50 [5] was < 0.1 µM (active).

For CCCCCCOc1ccc(CN2CCN(CCO)CC2)cc1, the EC50 (HT-1080) was > 50 µM (not active), the EC50 [6] was 1.74 µM (active) and the AC50 [7] was < 0.16 µM (active).

In the case of Nc1c(-c2cccc(Cl)c2)cnc2c(-c3ccccc3)cnn12, the EC50 [8] is reported as 1.15 µM (active), the EC50 [9] is reported as 0.321 µM (active) and the EC50 [10] is reported as 0.478 µM (active). For the same molecule, the EC50 (H4) was 0.785 µM (active) and the EC50 [11] was < 0.1 µM (inconclusive).

For CCCn1c(NC(=O)c2ccc(Br)cc2)nc2ccccc21, the EC50 [12] was 9.79 µM (active), the EC50 [13] was 13.6 µM (not active) and the EC50 [14] was 8.96 µM (active).

For O=C(CSc1nnnn1Cc1ccccc1)NCC(=O)c1ccccc1, the EC50 [12] was 45.9 µM (not active), the EC50 [13] was 84.7 µM (not active) and the EC50 [14] was > 79.4 µM (not active).

With CSc1nc(O)c2c(n1)N=C1CCCC(O)=C1C2c1cccs1 (configuration not stated) the IC50 (Estrogen receptor beta) was 11.4 µM (active).

In the case of CCOc1ccc(CCNC(=O)CSc2nn(-c3ccc(C)c(Cl)c3)c(=S)s2)cc1OCC, the EC50 [12] is reported as 51.9 µM (not active), the EC50 [13] is reported as > 79.4 µM (not active) and the EC50 [14] is reported as > 79.4 µM (not active).

For COc1cc(/C=C/c2ccc3cccc(O)c3n2)cc(Br)c1OC, the EC50 [15] was 9.61 µM (active), the EC50 (HEK293 [16]) was > 20 µM (inactive) and the EC50 (BJ [17]) was 35.8 µM (active). The IC50 (HEK293 [18]) was > 20 µM (inactive), the IC50 (HEK293 [19]) was > 20 µM (inactive) and the IC50 (HEK293 [20]) was 4.13 µM (inactive). The EC50 (BJ [21]) was 10.2 µM (active), the EC50 [22] was 21.1 µM (active) and the EC50 [23] was 0.699 µM (active). The IC50 (HEK293 [24]) was 10.4 µM (active), the EC50 (BJ [25]) was 21.1 µM (active) and the EC50 [26] was > 20 µM (inactive).
